Earlier results in patent US20100136109A1, “SUSTAINED RELEASE” (priority 2007, published 2010).

Conditions: in vivo

Structure (SMILES)	half-life
N[C@@H](Cc1cc(I)c(Oc2ccc(O)c(I)c2)c(I)c1)C(=O)O [Formulation T3, triiodothyronine]	approx 12 hours
N[C@@H](Cc1cc(I)c(Oc2cc(I)c(O)c(I)c2)c(I)c1)C(=O)O [Formulation T4, thyroxine]	170 h
